Measurements as given in patent US9737498B2, “Method for treating an inflammation or lesion caused by a virus” (priority 2001, dated 2017).
Like-named read-outs stand apart in the source and are kept apart here.

Columns and labels:
[1] = test system: Herpes simplex virus 1 (HSV-1); test: Growth inhibition of HSV-1 in vitro (Vero cells, cytopathic effect / plaques); assay type: cell-based; details: for Virus growth (HSV-1): pH 3.5 (HCl); for Upper pH limit at which HSV-1 is inactivated by the alcohol: alcohol 0.2% by volume, pH adjusted with HCl, tested pH 4.0 to 6.8 at increments of 0.2, incubated with the virus for 2 minutes
[2] = test system: VSV (a lipid-coated virus); details: cited from earlier work
[3] = test system: naked viruses (e.g., poliovirus type 1); details: alcohol alone; cited from earlier work
rhinoviruses = details: foams; cited from earlier work
[4] = test system: "enveloped" viruses (herpesvirus, orthomyxovirus and rhabdovirus (Rabies virus)); details: room temperature, aqueous solutions of pure acids; cited from earlier work

## CCO [ethanol]
[1]; 1.0% ethanol, 5 minute exposure, diluted 1/16 with Eagles medium
  Virus growth (HSV-1): +
[1]; 1.0% ethanol, 5 minute exposure, diluted 1/64 with Eagles medium
  Virus growth (HSV-1): +
[1]; 1.0% ethanol, 5 minute exposure, diluted ¼ with Eagles medium
  Virus growth (HSV-1): +
[1]; 1.0% ethanol, 5 minute exposure, undiluted
  Virus growth (HSV-1): +
[1]; 1.0% ethanol, 10 minute exposure, diluted 1/16 with Eagles medium
  Virus growth (HSV-1): +
[1]; 1.0% ethanol, 10 minute exposure, diluted 1/64 with Eagles medium
  Virus growth (HSV-1): +
[1]; 1.0% ethanol, 10 minute exposure, diluted ¼ with Eagles medium
  Virus growth (HSV-1): +
[1]; 1.0% ethanol, 10 minute exposure, undiluted
  Virus growth (HSV-1): −
[1]; 2.5% ethanol solution diluted by ¼, pH 3.5, exposure time 10 minutes
  Inhibition of growth of the virus (HSV-1): effectively inhibited growth of the virus
[1]; 2.5% ethanol, 5 minute exposure, diluted 1/16 with Eagles medium
  Virus growth (HSV-1): +
[1]; 2.5% ethanol, 5 minute exposure, diluted 1/64 with Eagles medium
  Virus growth (HSV-1): +
[1]; 2.5% ethanol, 5 minute exposure, diluted ¼ with Eagles medium
  Virus growth (HSV-1): +
[1]; 2.5% ethanol, 5 minute exposure, undiluted
  Virus growth (HSV-1): +
[1]; 2.5% ethanol, 10 minute exposure, diluted 1/16 with Eagles medium
  Virus growth (HSV-1): +
[1]; 2.5% ethanol, 10 minute exposure, diluted 1/64 with Eagles medium
  Virus growth (HSV-1): +
[1]; 2.5% ethanol, 10 minute exposure, diluted ¼ with Eagles medium
  Virus growth (HSV-1): −
[1]; 2.5% ethanol, 10 minute exposure, undiluted
  Virus growth (HSV-1): −
[1]; 5.0% ethanol, 5 minute exposure, diluted 1/16 with Eagles medium
  Virus growth (HSV-1): +
[1]; 5.0% ethanol, 5 minute exposure, diluted 1/64 with Eagles medium
  Virus growth (HSV-1): +
[1]; 5.0% ethanol, 5 minute exposure, diluted ¼ with Eagles medium
  Virus growth (HSV-1): +
[1]; 5.0% ethanol, 5 minute exposure, undiluted
  Virus growth (HSV-1): +
[1]; 5.0% ethanol, 10 minute exposure, diluted 1/16 with Eagles medium
  Virus growth (HSV-1): +
[1]; 5.0% ethanol, 10 minute exposure, diluted 1/64 with Eagles medium
  Virus growth (HSV-1): +
[1]; 5.0% ethanol, 10 minute exposure, diluted ¼ with Eagles medium
  Virus growth (HSV-1): −
[1]; 5.0% ethanol, 10 minute exposure, undiluted
  Virus growth (HSV-1): −
[1]; 10% ethanol, 5 minute exposure, diluted 1/16 with Eagles medium
  Virus growth (HSV-1): +
[1]; 10% ethanol, 5 minute exposure, diluted 1/64 with Eagles medium
  Virus growth (HSV-1): +
[1]; 10% ethanol, 5 minute exposure, diluted ¼ with Eagles medium
  Virus growth (HSV-1): +
[1]; 10% ethanol, 5 minute exposure, undiluted
  Virus growth (HSV-1): +
[1]; 10% ethanol, 10 minute exposure, diluted 1/16 with Eagles medium
  Virus growth (HSV-1): +
[1]; 10% ethanol, 10 minute exposure, diluted 1/64 with Eagles medium
  Virus growth (HSV-1): +
[1]; 10% ethanol, 10 minute exposure, diluted ¼ with Eagles medium
  Virus growth (HSV-1): −
[1]; 10% ethanol, 10 minute exposure, undiluted
  Virus growth (HSV-1): −
[1]; 12.5% ethanol solution, pH 3.5, exposure time of five minutes
  Inhibition of the virus (HSV-1): inhibited the virus
[1]; 12.5% ethanol, 5 minute exposure, diluted 1/16 with Eagles medium
  Virus growth (HSV-1): +
[1]; 12.5% ethanol, 5 minute exposure, diluted 1/64 with Eagles medium
  Virus growth (HSV-1): +
[1]; 12.5% ethanol, 5 minute exposure, diluted ¼ with Eagles medium
  Virus growth (HSV-1): −
[1]; 12.5% ethanol, 5 minute exposure, undiluted
  Virus growth (HSV-1): −
[1]; 12.5% ethanol, 10 minute exposure, diluted 1/16 with Eagles medium
  Virus growth (HSV-1): −
[1]; 12.5% ethanol, 10 minute exposure, diluted 1/64 with Eagles medium
  Virus growth (HSV-1): +
[1]; 12.5% ethanol, 10 minute exposure, diluted ¼ with Eagles medium
  Virus growth (HSV-1): −
[1]; 12.5% ethanol, 10 minute exposure, undiluted
  Virus growth (HSV-1): −
[1]
  Upper pH limit at which HSV-1 is inactivated by the alcohol: 4.4
[2]; pH of about 4 to 5 at 4° C., aqueous solution of biologically active protein
  Virucidal activity against VSV: fairly inactive
[3]
  Activity against naked viruses: did not exhibit sufficient activities
rhinoviruses
  Effectiveness in killing rhinoviruses: not effective

## CC(O)C(C)O (stereo not drawn) [2,3-butanediol]
[1]
  Upper pH limit at which HSV-1 is inactivated by the alcohol: 4.6

## CCCCO [n-butanol]
[1]
  Upper pH limit at which HSV-1 is inactivated by the alcohol: 4.6

## CO [methanol]
[1]
  Upper pH limit at which HSV-1 is inactivated by the alcohol: 4.6

## O=C(O)CC(O)C(=O)O (stereo not drawn) [malic acid]
[4]
  Effectiveness in vitro against enveloped viruses: effective

## butanol [reference compound]
[2]
  Virucidal activity against VSV: fairly inactive

## O=C(O)CO [glycolic acid]
[1]; aqueous acid solution pH 3.8, exposure of 4 minutes, dilution 1/16
  Virus growth at sample dilution (HSV-1): −
[1]; aqueous acid solution pH 3.8, exposure of 4 minutes, dilution 1/64
  Virus growth at sample dilution (HSV-1): −
[1]; aqueous acid solution pH 3.8, exposure of 4 minutes, dilution ¼
  Virus growth at sample dilution (HSV-1): −
[1]; aqueous acid solution pH 3.8, exposure of 4 minutes, undiluted
  Virus growth at sample dilution (HSV-1): −
[1]; aqueous acid solution pH 4.0, exposure of 4 minutes, dilution 1/16
  Virus growth at sample dilution (HSV-1): +
[1]; aqueous acid solution pH 4.0, exposure of 4 minutes, dilution 1/64
  Virus growth at sample dilution (HSV-1): +
[1]; aqueous acid solution pH 4.0, exposure of 4 minutes, dilution ¼
  Virus growth at sample dilution (HSV-1): +
[1]; aqueous acid solution pH 4.0, exposure of 4 minutes, undiluted
  Virus growth at sample dilution (HSV-1): +
[1]; aqueous acid solution pH 4.2, exposure of 4 minutes, dilution 1/16
  Virus growth at sample dilution (HSV-1): +
[1]; aqueous acid solution pH 4.2, exposure of 4 minutes, dilution 1/64
  Virus growth at sample dilution (HSV-1): +
[1]; aqueous acid solution pH 4.2, exposure of 4 minutes, dilution ¼
  Virus growth at sample dilution (HSV-1): +
[1]; aqueous acid solution pH 4.2, exposure of 4 minutes, undiluted
  Virus growth at sample dilution (HSV-1): −
[1]; aqueous acid solution pH 6.0, exposure of 4 minutes, dilution 1/16
  Virus growth at sample dilution (HSV-1): +
[1]; aqueous acid solution pH 6.0, exposure of 4 minutes, dilution 1/64
  Virus growth at sample dilution (HSV-1): +
[1]; aqueous acid solution pH 6.0, exposure of 4 minutes, dilution ¼
  Virus growth at sample dilution (HSV-1): +
[1]; aqueous acid solution pH 6.0, exposure of 4 minutes, undiluted
  Virus growth at sample dilution (HSV-1): +

## CCCO [propanol, reference compound]
[3]
  Activity against naked viruses: did not exhibit sufficient activities

## CC(=O)C(=O)O [pyruvic acid]
[4]
  Effectiveness in vitro against enveloped viruses: effective

## CCC(O)CO (stereo not drawn) [1,2-butanediol]
[1]
  Upper pH limit at which HSV-1 is inactivated by the alcohol: 4.2

## O=C(O)CCC(=O)O [succinic acid]
[4]
  Effectiveness in vitro against enveloped viruses: effective

## O=C(O)CC(O)(CC(=O)O)C(=O)O [citric acid]
[4]
  Effectiveness in vitro against enveloped viruses: effective
